Measurements: patent US20200339625A1, “NOVEL RADIOMETAL-BINDING COMPOUNDS FOR DIAGNOSIS OR TREATMENT OF PROSTATE SPECIFIC MEMBRANE ANTIGEN-EXPRESSING CANCER” (PROVINCIAL HEALTH SERVICES AUTHORITY, priority 2017, published 2020)

Key:
[1] = tested on: mice bearing LNCaP tumor xenografts; assay: PET/CT imaging of 68Ga-labeled compounds; format: in vivo
Procedure: 2.17 PET/CT Imaging and Biodistribution
(§1) Imaging and biodistribution experiments were performed using NODSCID 1L2RyKO male mice. Mice were anesthetized by inhalation with 2% isoflurane in oxygen, and implanted subcutaneously with 1×10^7 LNCaP cells behind left shoulder. Mice were imaged or used in biodistribution studies when the tumor grew up to reach 5-8 mm in diameter during 5-6 weeks.
PET imaging experiments were conducted using Siemens Inveon micro PET/CT scanner. Each tumor bearing mouse was injected 6-8 MBq of 68Ga-labeled tracer through the tail vein under anesthesia (2% isoflurane in oxygen). The mice were allowed to recover and roam freely in their cage. After 50 min, the mice were sedated again with 2% isoflurane in oxygen inhalation and positioned in the scanner. A 10-min CT scan was conducted first for localization and attenuation correction after segmentation for reconstructing the PET images. Then, a 10-min static PET imaging was performed to determined uptake in tumor and other organs. The mice were kept warm by a heating pad during acquisition. For imaging studies acquired at 3 h post-injection (p.i.), the mice were placed in the micro PET/CT scanner at 170 min p.i. Then, the CT acquisitions were conducted as described above, a 15-min static PET imaging was performed to determined uptake in tumor and other organs.

[2] = tested on: mice bearing PSMA-expressing LNCAP cancer xenografts; assay: Biodistribution of 68Ga-labeled compounds; format: in vivo
Procedure: as §1
For biodistribution studies, the mice were injected with the radiotracer as described above. At predetermined time points (1 or 3 h), the mice was anesthetized with 2% isoflurane inhalation, and euthanized by CO2 inhalation. Blood was withdrawn immediately from the heart, and the organs/tissues of interest were collected. The collected organs/tissues were weighed and counted using an automatic gamma counter. The uptake in each organ/tissue was normalized to the injected dose using a standard curve, and expressed as the percentage of the injected dose per gram of tissue (% ID/g).

With `O=C([O-])CN1CCN(CC(=O)[O-])CCN(CC(=O)NCCCC[C@H](NC(=O)CNC(=O)CCCc2ccc(Br)cc2)C(=O)NC[C@H]2CC[C@H](C(=O)N[C@@H](Cc3ccc4ccccc4c3)C(=O)NCCCC[C@H](NC(=O)N[C@@H](CCC(=O)O)C(=O)O)C(=O)O)CC2)CCN(CC(=O)[O-])CC1.[68Ga+3]` [^68Ga-HTK03058] the “change of tumor uptake from 1 h to 3 h post-injection” value ([1]; PET/CT images) was “uptake in tumors increases over time”, the “blood retention (qualitative)” value ([1]; PET/CT images at 1 h and 3 h post-injection, comparison within the figure) was “some extent of blood retention” and the Adrenal glands uptake ([2]; 1 h post-injection) was 4.20 ± 1.21 % ID/g. The Blood uptake ([2]; 1 h post-injection) was 26.7 ± 3.02 % ID/g, the Bone uptake ([2]; 1 h post-injection) was 1.04 ± 0.26 % ID/g and the Brain uptake ([2]; 1 h post-injection) was 0.36 ± 0.06 % ID/g. The Fat uptake ([2]; 1 h post-injection) was 2.13 ± 0.57 % ID/g, the Heart uptake ([2]; 1 h post-injection) was 6.09 ± 0.97 % ID/g and the Intestine uptake ([2]; 1 h post-injection) was 1.64 ± 0.27 % ID/g. For the same compound, the Kidneys uptake ([2]; 1 h post-injection) was 14.7 ± 2.13 % ID/g, the Lacrimal uptake ([2]; 1 h post-injection) was 0.69 ± 0.26 % ID/g and the Liver uptake ([2]; 1 h post-injection) was 3.87 ± 1.00 % ID/g. For the same compound, the Lungs uptake ([2]; 1 h post-injection) was 10.2 ± 2.20 % ID/g, the Muscle uptake ([2]; 1 h post-injection) was 1.37 ± 0.17 % ID/g and the Pancreas uptake ([2]; 1 h post-injection) was 2.00 ± 0.17 % ID/g. It also gave a Salivary uptake ([2]; 1 h post-injection) of 3.90 ± 0.70 % ID/g, a Seminal uptake ([2]; 1 h post-injection) of 1.31 ± 0.38 % ID/g and a Spleen uptake ([2]; 1 h post-injection) of 3.13 ± 1.05 % ID/g. It also gave a Stomach uptake ([2]; 1 h post-injection) of 0.58 ± 0.20 % ID/g, a Tail uptake ([2]; 1 h post-injection) of 8.87 ± 4.26 % ID/g and a Testes uptake ([2]; 1 h post-injection) of 2.74 ± 0.38 % ID/g. The Thyroid uptake ([2]; 1 h post-injection) was 4.95 ± 0.79 % ID/g, the Tumor uptake ([2]; 1 h post-injection) was 11.2 ± 3.33 % ID/g and the “Tumor:Blood ratio” value ([2]; 1 h post-injection) was 0.42 ± 0.11. For the same compound, the “Tumor:Muscle ratio” value ([2]; 1 h post-injection) was 8.04 ± 1.69, the “Tumor:kidney ratio” value ([2]; 1 h post-injection) was 0.75 ± 0.17 and the Urine uptake ([2]; 1 h post-injection) was 3.97 ± 2.56 % ID/g. The Adrenal glands uptake ([2]; 3 h post-injection) was 4.46 ± 1.42 % ID/g, the Blood uptake ([2]; 3 h post-injection) was 21.2 ± 2.21 % ID/g and the Bone uptake ([2]; 3 h post-injection) was 1.54 ± 0.36 % ID/g. The Brain uptake ([2]; 3 h post-injection) was 0.30 ± 0.06 % ID/g, the Fat uptake ([2]; 3 h post-injection) was 2.47 ± 1.61 % ID/g and the Heart uptake ([2]; 3 h post-injection) was 4.85 ± 0.67 % ID/g. The Intestine uptake ([2]; 3 h post-injection) was 1.63 ± 0.18 % ID/g, the Kidneys uptake ([2]; 3 h post-injection) was 17.5 ± 3.83 % ID/g and the Lacrimal uptake ([2]; 3 h post-injection) was 1.44 ± 0.37 % ID/g. It also gave a Liver uptake ([2]; 3 h post-injection) of 2.80 ± 0.46 % ID/g, a Lungs uptake ([2]; 3 h post-injection) of 8.21 ± 1.21 % ID/g and a Muscle uptake ([2]; 3 h post-injection) of 1.33 ± 0.24 % ID/g. The Pancreas uptake ([2]; 3 h post-injection) was 1.96 ± 0.20 % ID/g, the Salivary uptake ([2]; 3 h post-injection) was 3.45 ± 0.40 % ID/g and the Seminal uptake ([2]; 3 h post-injection) was 1.15 ± 0.16 % ID/g. The Spleen uptake ([2]; 3 h post-injection) was 2.11 ± 0.44 % ID/g, the Stomach uptake ([2]; 3 h post-injection) was 0.79 ± 0.23 % ID/g and the Tail uptake ([2]; 3 h post-injection) was 6.86 ± 2.42 % ID/g. The Testes uptake ([2]; 3 h post-injection) was 3.02 ± 0.80 % ID/g, the Thyroid uptake ([2]; 3 h post-injection) was 3.72 ± 0.33 % ID/g and the Tumor uptake ([2]; 3 h post-injection) was 14.2 ± 1.99 % ID/g. For the same compound, the “Tumor:Blood ratio” value ([2]; 3 h post-injection) was 0.67 ± 0.07, the “Tumor:Muscle ratio” value ([2]; 3 h post-injection) was 10.8 ± 1.56 and the “Tumor:kidney ratio” value ([2]; 3 h post-injection) was 0.83 ± 0.11. The Urine uptake ([2]; 3 h post-injection) was 6.15 ± 3.78 % ID/g.
`O=C([O-])CN1CCN(CC(=O)[O-])CCN(CC(=O)NCCCC[C@H](NC(=O)CNC(=O)CCc2ccccc2)C(=O)NC[C@H]2CC[C@H](C(=O)N[C@@H](Cc3ccc4ccccc4c3)C(=O)NCCCC[C@H](NC(=O)N[C@@H](CCC(=O)O)C(=O)O)C(=O)O)CC2)CCN(CC(=O)[O-])CC1.[68Ga+3]` [^68Ga-HTK03082] was tested, and the excretion pathway ([1]; PET/CT images) was “excreted mainly by the renal pathway”, the Adrenal glands uptake ([2]; 1 h post-injection) was 2.19 ± 0.76 % ID/g and the Blood uptake ([2]; 1 h post-injection) was 1.37 ± 0.23 % ID/g. The Bone uptake ([2]; 1 h post-injection) was 0.15 ± 0.06 % ID/g, the Brain uptake ([2]; 1 h post-injection) was 0.03 ± 0.01 % ID/g and the Fat uptake ([2]; 1 h post-injection) was 0.61 ± 0.09 % ID/g. It also gave a Heart uptake ([2]; 1 h post-injection) of 0.40 ± 0.07 % ID/g, an Intestine uptake ([2]; 1 h post-injection) of 0.33 ± 0.07 % ID/g and a Kidneys uptake ([2]; 1 h post-injection) of 81.6 ± 12.6 % ID/g. For the same compound, the Lacrimal uptake ([2]; 1 h post-injection) was 0.08 ± 0.03 % ID/g, the Liver uptake ([2]; 1 h post-injection) was 0.39 ± 0.09 % ID/g and the Lungs uptake ([2]; 1 h post-injection) was 1.39 ± 0.27 % ID/g. It also gave a Muscle uptake ([2]; 1 h post-injection) of 0.33 ± 0.15 % ID/g, a Pancreas uptake ([2]; 1 h post-injection) of 0.47 ± 0.26 % ID/g and a Salivary uptake ([2]; 1 h post-injection) of 1.17 ± 0.27 % ID/g. It also gave a Seminal uptake ([2]; 1 h post-injection) of 0.81 ± 0.94 % ID/g, a Spleen uptake ([2]; 1 h post-injection) of 1.12 ± 0.19 % ID/g and a Stomach uptake ([2]; 1 h post-injection) of 0.10 ± 0.03 % ID/g. It also gave a Tail uptake ([2]; 1 h post-injection) of 0.84 ± 0.14 % ID/g, a Testes uptake ([2]; 1 h post-injection) of 0.42 ± 0.05 % ID/g and a Thyroid uptake ([2]; 1 h post-injection) of 0.58 ± 0.11 % ID/g. For the same compound, the Tumor uptake ([2]; 1 h post-injection) was 13.6 ± 2.16 % ID/g, the “Tumor:Blood ratio” value ([2]; 1 h post-injection) was 10.1 ± 1.91 and the “Tumor:Muscle ratio” value ([2]; 1 h post-injection) was 49.2 ± 24.2. The “Tumor:kidney ratio” value ([2]; 1 h post-injection) was 0.17 ± 0.02, the Urine uptake ([2]; 1 h post-injection) was 349 ± 209 % ID/g and the Adrenal glands uptake ([2]; 3 h post-injection) was 0.38 ± 0.06 % ID/g. It also gave a Blood uptake ([2]; 3 h post-injection) of 0.25 ± 0.04 % ID/g, a Bone uptake ([2]; 3 h post-injection) of 0.01 ± 0.01 % ID/g and a Brain uptake ([2]; 3 h post-injection) of 0.01 ± 0.00 % ID/g. The Fat uptake ([2]; 3 h post-injection) was 0.21 ± 0.01 % ID/g, the Heart uptake ([2]; 3 h post-injection) was 0.07 ± 0.02 % ID/g and the Intestine uptake ([2]; 3 h post-injection) was 0.19 ± 0.02 % ID/g. For the same compound, the Kidneys uptake ([2]; 3 h post-injection) was 22.3 ± 9.97 % ID/g, the Lacrimal uptake ([2]; 3 h post-injection) was 0.01 ± 0.01 % ID/g and the Liver uptake ([2]; 3 h post-injection) was 0.17 ± 0.02 % ID/g. The Lungs uptake ([2]; 3 h post-injection) was 0.28 ± 0.07 % ID/g, the Muscle uptake ([2]; 3 h post-injection) was 0.11 ± 0.11 % ID/g and the Pancreas uptake ([2]; 3 h post-injection) was 0.09 ± 0.03 % ID/g. The Salivary uptake ([2]; 3 h post-injection) was 0.20 ± 0.07 % ID/g, the Seminal uptake ([2]; 3 h post-injection) was 0.12 ± 0.08 % ID/g and the Spleen uptake ([2]; 3 h post-injection) was 0.24 ± 0.08 % ID/g. The Stomach uptake ([2]; 3 h post-injection) was 0.05 ± 0.01 % ID/g, the Tail uptake ([2]; 3 h post-injection) was 0.24 ± 0.14 % ID/g and the Testes uptake ([2]; 3 h post-injection) was 0.13 ± 0.08 % ID/g. The Thyroid uptake ([2]; 3 h post-injection) was 0.16 ± 0.09 % ID/g, the Tumor uptake ([2]; 3 h post-injection) was 14.5 ± 2.12 % ID/g and the “Tumor:Blood ratio” value ([2]; 3 h post-injection) was 58.1 ± 12.6. For the same compound, the “Tumor:Muscle ratio” value ([2]; 3 h post-injection) was 223 ± 122, the “Tumor:kidney ratio” value ([2]; 3 h post-injection) was 1.12 ± 1.30 and the Urine uptake ([2]; 3 h post-injection) was 191 ± 83.1 % ID/g.
